Source: patent US7056679B2, “Target specific screening and its use for identifying target binders” (Antyra, Inc., priority 2001, dated 2006)

How the values were obtained:
E-tag antibody = assay: ELISA analysis of phage on antibody raised against ETAG (positive control); settings: peptide binding to E-tag antibody; phage ELISA units read at 405 nm
Experimental: (§1) For analysis of individual target binders, colonies were picked and phage prepared as described above using helper phage, M13KO7. Ninety-six-well microtiter plates were coated with 500 ng/well of specific target protein, 500 ng/well lactate dehydrogenase (LDH) irrelevant or non-specific target, 500 ng/well of positive control antibody raised against ETAG, and negative control of non-fat milk powder-PBS 2% at 4° C. overnight. Plates were then blocked with 350 microliters/well PBS containing 2% non-fat milk for 1 hr at room temperature. One hundred microliters per well of phage from isolated clones were added and plates were incubated at room temperature for 2 hr after centrifuging samples for 20 minutes at 3500 rpm at 4° C. The phage solution was then removed, and the wells were washed three times with PBS at room temperature. Antibody raised against M13 conjugated to horseradish peroxidase (Pharmacia) was diluted 1:3000 in PBS-Tween and added to each well (100 μl/well). Incubation was for 1 hr at room temperature, followed by washing with PBS-(0.5%) Tween 3 times as described. Color was developed by addition of ABTS solution (100 μl/well; Boehringer, Indianapolis, Ind.). Plates were analyzed at 405 nm. A clone was considered “positive” if the A405 of the well was ≧2-fold over background.

[1] = system: lactate dehydrogenase (LDH); assay: ELISA analysis of phage on LDH (irrelevant, non-specific target); format: binding; settings: peptide binding to LDH polypeptide (non-specific binding); phage ELISA units read at 405 nm
Experimental: as §1

DGI-2 = target: T1, DGI-2 (Homo sapiens, UniProt Q15004); assay: ELISA analysis of phage on DGI-2 polypeptide (specific binding); settings: for DGI-2 (OD): binding to DGI-2 polypeptide (specific binding), phage ELISA units read at 405 nm; for DGI-2/LDH (OD): ratio of specific binding to non-specific binding
T1 construct: encompassed the entire DGI-2 open reading frame (ORF); His-tag of vector pIVEX2.3-MCS (inferred from the vector and from the reverse primer lacking a stop codon); made in house; host or cells: cell-free in vitro translation (Rapid Translation System RTS, Roche; E. coli lysate)
T1 sequence (Q15004 1-111): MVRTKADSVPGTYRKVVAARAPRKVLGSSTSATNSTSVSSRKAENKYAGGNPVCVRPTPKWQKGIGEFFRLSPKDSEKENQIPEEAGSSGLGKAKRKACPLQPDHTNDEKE
Experimental: To verify that the selected target binders bound to DGI-2, Elisa assays were performed with recombinant DGI-2. DGI-2 was subcloned and expressed using conventional methods as described below.
Protein yields were satisfactory, but most of protein was found in inclusion bodies. Next, DGI-2 was expressed using an in vitro translation system (Rapid Translation System RTS 5000, Roche Diagnostics GmbH, Mannheim Germany). For this system, the DGI-2 ORF was cloned into the pIVEX2.3-MCS vector (Roche Diagnostics) using restriction sites Nde I and Hind III, which were added to DGI-2 by PCR. […] The primers used for the PCR amplification were as follows: […]
as §1

Row | LDH (OD) [1] [OD] | DGI-2 (OD) (DGI-2) | DGI-2/LDH (OD) (DGI-2) | Substance | ETAG (OD) (E-tag antibody)
1 | 1.0 | 5.8 | 5.9 | GGGRESWGGGWFMGWGSGAG (DGI-2-20R-3-A6; listed as Escherichia coli) | 17.7
2 | 0.9 | 2.3 | 2.5 | GGSLPVKSGQLVTCCTSKGG (DGI-2-20F-PP-F5; listed as Escherichia coli) | 16.3
3 | 1.1 | 9.9 | 9.2 | GHGAGDWAAELFVCPVAFLTGFAWR (DGI-2-20R-4-H2; listed as Escherichia coli) | 12.9
4 | 1.1 | 6.0 | 5.2 | GIMQVAWGWREMTRLWDLGMA (GIMQVAWGWREWRLWDLGMA; DGI-2-20R-3-C6; listed as Escherichia coli) | 20.3
5 | 1.0 | 3.3 | 3.2 | GITGLFCLCLRSSQSI (DGI-2-20F-PP-D6; listed as Escherichia coli) [DGI-2-20F-P0P-D6] | 5.7
6 | 1.0 | 2.5 | 2.6 | GLEPVPFQTDKRIAMGWTREWLVNGYGAAHRRDARMQSGH (DGI-2-40F-3-D6; listed as Escherichia coli) | 11.4
7 | 0.8 | 1.0 | 1.3 | GLLFTSSPYQCFWVHCTLTMSPLSVLGDLSSTIGRMRASR (DGI-2-40F-3-C52; listed as Escherichia coli) | 4.6
8 | 1.0 | 2.4 | 2.5 | GLRACDTYLGFCVGARRIDD (DGI-2-20F-3-B102; listed as Escherichia coli) | 18.0
9 | 1.1 | 2.7 | 2.5 | GLYQRGLAPRCRGERFGVRN (DGI-2-20F-PP-C2; listed as Escherichia coli) | 6.0
10 | 0.9 | 2.2 | 2.5 | GLYRRAGDASVGFSRWGREDCQVYFSVECLLGSSWGGYS (GLYRRAGDASVGFSRWGRFDCQVYFSVECLLGSSWGGYS; DGI-2-40F-4-F12; listed as Escherichia coli) | 8.7
11 | 1.1 | 1.5 | 1.4 | GMWIRPNGHMELQGGYTARS (GMWIRPNGHMFLQGGYTARS; DGI-2-20R-4-G8; listed as Escherichia coli) | 14.5
12 | 1.0 | 2.3 | 2.3 | GNKCFPPHDLFWDPCDQLQS (DGI-2-20R-4-F6; listed as Escherichia coli) | 13.2
13 | 0.8 | 0.8 | 1.1 | GQISLAGVAVCSSERMLLAFSSRVFLPGLKVPVTTSQRGS (DGI-2-40F-3-A8; listed as Escherichia coli) | 1.5
14 | 0.7 | 1.4 | 1.9 | GRAGTSMTELVAWGFVQRVG (DGI-2-20F-PP-H10; listed as Escherichia coli) | 13.0
15 | 1.2 | 9.3 | 7.8 | GRWDGWEVCGIWGADDCASG (DGI-2-20R-4-H1; listed as Escherichia coli) | 14.0
16 | 1.1 | 2.7 | 2.5 | GSTRLRVTVRFCSETGTPGC (DGI-2-20F-PP-G6; listed as Escherichia coli) | 36.1
17 | 1.0 | 3.4 | 3.4 | GSVLERGCLEFSGFCFSLGH (DGI-2-20F-3-C1; listed as Escherichia coli) | 14.0

Row | LDH (OD) [1] [OD] | DGI-2 (OD) (DGI-2) | DGI-2/LDH (OD) (DGI-2) | Substance | ETAG (OD) (E-tag antibody)
18 | 0.8 | 1.7 | 2.0 | GVVRAQQGLRYELQGDRYRLRRTQWLTVTYCSPSWAFAGC (DGI-2-40F-3-B116; listed as Escherichia coli) | 6.5
19 | 1.0 | 5.9 | 5.7 | GWGCSVPGILCVGGHRQGGG (DGI-2-20R-3-B11; listed as Escherichia coli) | 16.9
20 | 1.1 | 13.6 | 12.2 | GWSDFVATGSWSGQVSAALN (DGI-2-20R-4-F120; listed as Escherichia coli) | 16.5
21 | 0.7 | 0.8 | 1.2 | HGTRLRGVDYVMTWAGWQGYSSRKHVQQAVAGSSPGSDEL (DGI-2-40F-3-B1; listed as Escherichia coli) | 6.3
22 | 0.8 | 1.2 | 1.5 | HPWVTNMLVFQRPPPPGFWLSDTTPRQRNGLGQVERPSVD (DGI-2-40F-3-C7; listed as Escherichia coli) | 8.8
23 | 0.8 | 1.7 | 2.2 | HSGNRQSGSRRTHLLNIFCSSDTFVFPGWSAYLSRVCPGD (DGI-2-40F-3-B122; listed as Escherichia coli) | 11.0
24 | 1.1 | 4.7 | 4.5 | ISGQVWSSWRFPGWGGKLF (ISGQVWSSWRFPGWGGKF; DGI-2-20R-3-D10; listed as Escherichia coli) | 19.6
25 | 0.8 | 1.9 | 2.4 | KVWGCGARRGWERLGHLNQV (DGI-2-20F-PP-B10; listed as Escherichia coli) | 27.1
26 | 0.9 | 1.8 | 2.0 | LAPMFLQNQVRTWAASRRPLPAGPSNARCETGSLSPWVPC (DGI-2-40F-3-B11; listed as Escherichia coli) | 7.9
27 | 1.0 | 2.5 | 2.6 | LFRFSGTGMASLPCVGWHLV (DGI-2-20F-PP-B6; listed as Escherichia coli) | 37.0
28 | 1.0 | 8.2 | 8.3 | LFSATGCALMSGFCLGSDGS (DGI-2-20R-3-C1; listed as Escherichia coli) | 14.0
29 | 0.9 | 1.0 | 1.0 | LGNASSLWFLRSVQESGVR (LGNASSLIPFLRSVQESGVR; DGI-2-20F-3-C5; listed as Escherichia coli) | 17.7
30 | 0.7 | 1.9 | 2.7 | LGPAHPHGRVCRVSSS#S (LGPAHPHGRVCRVSSSS; DGI-2-20F-PP-B9; listed as Escherichia coli) | 5.0
31 | 1.2 | 2.5 | 2.0 | LGRIVRPCVVRLCGGV##GV (LGRIVRPCVVRLCGGVGV; DGI-2-20F-PP-G10; listed as Escherichia coli) | 30.1
32 | 1.0 | 5.3 | 5.1 | LGRTFVWGTCLHLSVSRFGH (DGI-2-20F-PP-C3; listed as Escherichia coli) | 39.9
33 | 1.3 | 3.8 | 2.9 | LHFGSVMGWRPPGSLWSRPFGQVHPRSWSGS (DGI-2-40F-3-D11; listed as Escherichia coli) | 10.5
34 | 1.1 | 1.2 | 1.1 | LHRLGQSMGGTLDHLQGWGV (DGI-2-20R-4-E5; listed as Escherichia coli) | 17.9
